From paper PMC6679700 (International Journal of Nanomedicine, 2019)

Assays:
[1] = cited from earlier work
[2] = Solubility of FK506 in water, MCE and MCE ME; format: physicochemical; conditions: menthol/camphor eutectic, ratio 3/1 (w/w)
TRPM8 = conditions: skin; cited from earlier work

Row | SMILES | Aqueous solubility [1] [mg/mL] | Solubility of FK506 in MCE [2] [mg/mL] | Duration of cool sensation (TRPM8)
1 | C=CC[C@@H]1/C=C(\C)C[C@H](C)C[C@H](OC)[C@H]2O[C@@](O)(C(=O)C(=O)N3CCCC[C@H]3C(=O)O[C@H](/C(C)=C/[C@@H]3CC[C@@H](O)[C@H](OC)C3)[C@H](C)[C@@H](O)CC1=O)[C@H](C)C[C@@H]2OC [FK506, Tacrolimus] | 0.004 to 0.012 | 136 | 
2 | CC1CCC(C(C)C)C(O)C1 (stereo not drawn) [Menthol, menthol] |  |  | up to 70 mins
